Entries after “also recorded” stand apart in the source; their conditions may differ. Read-outs that look alike come from different tables or passages of the source. Where a SMILES comes first, the peptide text is derived from it. [ ]: non-standard residue; d: D form. The star is where a group is joined. Dolaproine = CO[C@@H]([C@@H]1CCCN1)[C@@H](C)C(=O)O; Dil = CC[C@H](C)[C@H](NC)[C@@H](CC(=O)O)OC; X1 = C[C@@H](N*)[C@@H](O)c1ccccc1; NMeV = CN[C@H](C(=O)O)C(C)C
Assays:
[1] = test system: MX-1 TNBC xenograft; test: In vivo efficacy in MX-1 TNBC xenograft model; conditions: 20 mg/kg i.v.
Description: For in vivo efficacy studies, immunocompromised mice were inoculated subcutaneously with 1x10^6 MX-1 TNBC cells in 50% Matrigel/50% Media on day 0. Treatment was started at a mean tumor volume of 75 mm^3 in the MX-1 model (n = 12/group: Compound 2, 20 mg/kg i. v. in a 2 days on/5 days off and in a once weekly (QW) schedule. VIP236, 20 mg/kg i. v. QW). Tumor and body weight were measured at least twice weekly.

[2] = Intravenous pharmacokinetics in rat; format: in vivo; conditions: for AUC(0-inf) / half-life / clearance / Vd: rat, in vivo, iv; for clearance: read-out: CLp; for Vd: read-out: Vss; for Plasma concentration of released payload: rat plasma after 0.5 mg/kg i.v. of the parent SMDC (4, 5, 6), LLOQ < 0.0005 µM
Description: Pharmacokinetic properties of SMDCs and their respective payloads were characterized in rats. Briefly, male Wistar rats (n = 3) were given a 0.5 mg/kg dose of SMDC formulated in plasma/DMSO (99:1) intravenously (i.v.) via tail vein. Blood was collected at pre-dose, 2, 5, 15, 30, 45, 60 min, 2, 4, 7, 24 h post-dose and then processed to plasma. Plasma was frozen at < −20°C until sample analysis. Plasma samples were analyzed for concentrations of SMDCs and their respective released payloads by LC-MS/MS.
Pharmacokinetics of SMDCs and their respective payloads from in vivo studies were determined using mean concentration-time profiles. All pharmacokinetic parameters were calculated by non-compartmental methods as previously described ([Perrier and Gibaldi, 1982]).

[3] = biological target: T1, human neutrophil elastase (Homo sapiens, UniProt P08246); test: Human neutrophil elastase cleavability assay; format: biochemical; conditions: 5 µM SMDC, 20, 40, 60 nM NE, 1 h, 37°C
T1 sequence (P08246 30-267): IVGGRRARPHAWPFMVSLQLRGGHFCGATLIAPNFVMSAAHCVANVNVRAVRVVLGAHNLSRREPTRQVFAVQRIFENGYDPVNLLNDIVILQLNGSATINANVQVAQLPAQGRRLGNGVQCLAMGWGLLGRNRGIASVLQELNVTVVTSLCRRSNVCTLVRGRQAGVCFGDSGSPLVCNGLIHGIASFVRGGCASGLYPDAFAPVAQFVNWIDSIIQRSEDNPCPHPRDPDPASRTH
Description: For the NE cleavability assay, the SMDC test compound was added to buffer (150 mM NaCl, 10 mM CaCl2, 0.05% BSA) to a final concentration of 5 µM (0.5% DMSO). The reaction was started by adding different concentrations of human NE (0, 20, 40, 60 nM) to the reaction vials. After incubation for 1 h at 37°C, the enzymatic reaction was stopped by precipitation in 50% ACN. Subsequently, the samples were subjected to HPLC-MS analysis to determine the concentration of test compound and of its metabolite.

[4] = Hydrolytic stability in PBS buffer at pH 7.4; format: physicochemical; conditions: PBS pH 7.4, 37 °C, 24 h
Description: For hydrolytic stability measurement, compounds 2, 3, 4, 5 and 6 (0.15 mg) were dissolved in acetonitrile/DMSO (4:1, 0.5 mL) and 1 mL of PBS buffer at pH 7.4 was then added. The sample solution was analyzed by HPLC to determine the amount of the test compound and the formation of degradation products over a period of 24 h at 37 °C.

[5] = Stability in rat plasma; format: in vitro ADME; conditions: 37 °C
Description: The SMDC compounds 2, 3, 4, 5 and 6 (1 mg) were dissolved in acetonitrile/DMSO (1:1, 0.5 mL). While vortexing, 20 µL of this solution was added to 1 mL rat plasma at 37 °C. The incubation was stopped at respective time intervals by adding acetonitrile/buffer pH 3 (80:20) and the test compounds and formation of degradation products were analyzed by LC and LC/MS.

[6] = Stability in human plasma; format: in vitro ADME; conditions: 37 °C
[7] = test system: 786-O (human RCC) cells; test: In vitro cytotoxicity, MTT assay, in absence or presence of neutrophil elastase; format: cell-based; conditions: Homo sapiens, 786-0, 72 h exposure
Description: (§1) 786-O (human RCC), HT-29 (human CRC), NCI-H292 (human NSCLC), NCI-H69 (human SCLC), MX-1 (human TNBC), and SUM149PT (human IBC) cells were acquired from ATCC and cultured according to the provider’s instructions.
(§2) The in vitro cytotoxicity of the SMDCs in comparison to the respective payloads was tested in a panel of cancer cell lines after a 72 h continuous exposure in presence or absence of 20 nM neutrophil elastase using MTT assays (ATCC). IC50 values were determined as the concentration of compound required for 50% inhibition of cell viability.

[8] = test system: NCI-H292 (human NSCLC) cells; test: as above; format: cell-based; conditions: Homo sapiens, NCI-H292, 72 h exposure
Description: as §1, §2

[9] = test system: HT-29 (human CRC) cells; test: as above; format: cell-based; conditions: Homo sapiens, HT-29, 72 h exposure
Description: as §1, §2

[10] = test system: SUM149PT (human IBC) cells; test: as above; format: cell-based; conditions: Homo sapiens, SUM149PT, 72 h exposure
Description: as §1, §2

[11] = Caco-2 cell permeability flux assay; format: in vitro ADME; conditions: human, 37 °C, mean of at least two assays
Description: The cell permeability of the payloads released by the SMDCs 5 and 6, namely, compounds 10 and 11 were investigated with an in vitro flux assay using Caco-2 cells ([Troutman and Thakker, 2003]). The compounds were dissolved in HEPES buffer and applied (in triplicates) to the cells either on the apical (A) or basolateral (B) side of the Caco-2 monolayer at a final concentration of 2 μM. Before and after incubation for 2 h at 37 °C, samples were taken from both compartments and analyzed by LC-MS/MS. The apparent permeability coefficient (Papp) was calculated for both the apical to basolateral (A → B) and the basolateral to apical (B → A) direction as described by Schwab et al. ([Schwab et al., 2003]).

[12] = male Wistar rats, 0.5 mg/kg SMDC i.v., plasma
[13] = with 20 nM neutrophil elastase, read-out: IC50 786–0 + neutrophil elastase
[14] = without neutrophil elastase, read-out: IC50 786–0
[15] = with 20 nM neutrophil elastase, read-out: IC50 NCI-H292 + neutrophil elastase
[16] = without neutrophil elastase, read-out: IC50 NCI-H292
[17] = with 20 nM neutrophil elastase, read-out: IC50 HT29 + neutrophil elastase
[18] = without neutrophil elastase, read-out: IC50 HT29
[19] = with 20 nM neutrophil elastase, read-out: IC50 SUM149 PT + neutrophil elastase
[20] = without neutrophil elastase, read-out: IC50 SUM149PT

Compound	AUC(0-inf) [2, 12]	half-life [2, 12]	clearance [2, 12]	Vd [2, 12]	Cleavage by human NE [3]	Stability in buffer pH 7.4 [4]	Stability in rat plasma [5]	Stability in human plasma [6]	IC50 [7, 13]	IC50 [7, 14]	IC50 [8, 15]	IC50 [8, 16]	IC50 [9, 17]	IC50 [9, 18]	IC50 [10, 19]	IC50 [10, 20]	Plasma concentration of released payload [2]	Papp A→B at 2 h, 2 μM [11]	Papp B→A at 2 h, 2 μM [11]	efflux ratio at 2 h, 2 μM [11]	also measured
CCCNC(=O)Nc1cccc(S(=O)(=O)Nc2cccc([C@@H](CC(=O)O)NC(=O)Nc3ccc(NC(=O)NCCN(C)CCN(C)CCN(C)CC(=O)N[C@@H](CC(N)=O)C(=O)N4CCC[C@H]4C(=O)N[C@H](C(=O)O[C@]4(CC)C(=O)OCc5c4cc4n(c5=O)Cc5c-4nc4ccccc4c5CC)C(C)C)cc3)c2)c1 [Compound 2]	2.52 ± 0.61 µM·h	8.31 ± 5.49 h	2.33 ± 0.44 mL/min/kg	0.627 ± 0.344 L/kg	essentially completely cleaved	Very small fractions of a degradation product; also recorded: highly stable	highly stable	Very small fractions of a degradation product; also recorded: highly stable	–	–	–	–	–	–	–	–	–	–	–	–	Tumor growth MX-1 ([1]; 2 days on/5 days off): significant tumor regression; also recorded: complete tumor regression; Body weight loss ([1]; 2 days on/5 days off, MX-1 model): no significant body weight loss; Tumor growth MX-1 ([1]; once weekly): tumor stasis; Body weight changes ([1]; MX-1 model): minor; payload/parent AUC ratio ([2]; male Wistar rats, 0.5 mg/kg SMDC i.v., plasma, molar basis): 0.0105
CCCNC(=O)Nc1cccc(S(=O)(=O)Nc2cccc([C@@H](CC(=O)O)NC(=O)Nc3ccc(NC(=O)NCCOCCOCCOCCC(=O)N[C@@H](CC(N)=O)C(=O)N4CCC[C@H]4C(=O)N[C@H](C(=O)NCCCN(C(=O)CO)[C@@H](c4cc(-c5cc(F)ccc5F)cn4Cc4ccccc4)C(C)(C)C)C(C)C)cc3)c2)c1 [Compound 5]	1.09 ± 0.49 µM·h	4.88 ± 4.37 h	5.5 ± 2.35 mL/min/kg	0.6 ± 0.515 L/kg	very slow	highly stable	highly stable	highly stable	–	–	–	–	–	–	–	–	–	–	–	–	–
CCc1c2c(nc3ccccc13)-c1cc3c(c(=O)n1C2)COC(=O)[C@]3(O)CC [Compound 7, 7-ethyl camptothecin, reference compound]	–	–	–	–	–	–	–	–	3.2 nM	3.7 nM	4.6 nM	3.8 nM	19 nM	22 nM	4.2 nM	3.8 nM	–	–	–	–	–
CC[C@H](C)[C@@H]([C@@H](CC(=O)N1CCC[C@H]1[C@H](OC)[C@@H](C)C(=O)N[C@H](C)[C@@H](O)c1ccccc1)OC)N(C)C(=O)[C@@H](NC(=O)[C@@H](NC)C(C)C)C(C)C [Compound 9, N-methyl-L-valyl-N-[(3R,4S,5S)-1-{(2S)-2-[(1R,2R)-3-{[(1S,2R)-1-hydroxy-1-phenylpropan-2-yl]amino}-1-methoxy-2-methyl-3-oxopropyl]pyrrolidin-1-yl}-3-methoxy-5-methyl-1-oxoheptan-4-yl]-N-methyl-L-valinamide, reference compound] (H-[NMeV]V[Dil][Dolaproine]-X1)	–	–	–	–	–	–	–	–	4.9 nM	5.9 nM	0.36 nM	0.4 nM	0.55 nM	0.58 nM	0.14 nM	0.18 nM	largely below the lower limit of quantitation	–	–	–	–
CC(C)(C)[C@H](c1cc(-c2cc(F)ccc2F)cn1Cc1ccccc1)N(CCCN)C(=O)CO [Compound 10, N-(3-aminopropyl)-N-{(1R)-1-[1-benzyl-4-(2,5-difluorophenyl)-1H-pyrrol-2-yl]-2,2-dimethylpropyl}-2-hydroxyacetamide]	–	–	–	–	–	–	–	–	2.5 nM	2.5 nM	0.27 nM	0.46 nM	0.41 nM	0.41 nM	0.17 nM	0.33 nM	largely below the lower limit of quantitation	0.38 ×10⁻⁶ cm/s	18 ×10⁻⁶ cm/s	129	–
CNC(=O)[C@@H](N)CCN(C(=O)CO)[C@@H](c1cc(-c2cc(F)ccc2F)cn1Cc1ccccc1)C(C)(C)C [Compound 11, (2S)-2-amino-4-[{(1R)-1-[1-benzyl-4-(2,5-difluorophenyl)-1H-pyrrol-2-yl]-2,2-dimethylpropyl}(glycoloyl)amino]-N-methylbutanamide]	–	–	–	–	–	–	–	–	6 nM	6 nM	0.97 nM	1.8 nM	1.4 nM	1.2 nM	0.53 nM	0.31 nM	largely below the lower limit of quantitation	3.48 ×10⁻⁶ cm/s	30.3 ×10⁻⁶ cm/s	8.7	–

Source: article PMC10943695, “Neutrophil elastase as a versatile cleavage enzyme for activation of αvβ3 integrin-targeted small molecule drug conjugates with different payload classes in the tumor microenvironment” (Frontiers in Pharmacology, 2024)
